Three compounds from patent US20250270615A1, “METHOD FOR DETECTING THE MICROBIAL GROWTH POTENTIAL OF AN ANTISCALANT COMPOSITION IN NATURAL SEAWATER” (ACWA POWER Company, priority 2024, published 2025) can be followed below.

The structures appear in SMILES notation.

The test relates to autochthonous seawater bacteria. Kind of test: Bacterial growth potential of antiscalants in natural seawater with an autochthonous bacterial population (flow cytometry). The class given is cell-based. The note with it: 50 mg L^−1 antiscalant, Red Sea water, 30° C. dark, 8 days, one-tail Wilcoxon signed-rank test. As for the experimental part: The natural seawater was serially filtered to remove microbial cells and to set a desired low initial cell concentration for the growth potential assay within approximately 10,000 to 20,000 bacterial cells mL^−1. This seawater was used in the method of the present disclosure.
Natural seawater (1.0 L) was serially filtered through pre-cleaned 0.45 μm pore size and 0.2 μm pore size polyethersulfone filters (Satorius Stedium Minisart). The filters were replaced every 100 mL.
30 mL of the resulting filtered seawater with a bacterial cell concentration of 21,000±1200 cells mL^−1 was added to AOC-free 40 mL borosilicate glass vials with screw caps containing PTFE-lined silicone septa.
Antiscalants from the 8 stock solutions (3 g L^−1) were added to 8 vials to obtain 8 mixtures comprising the antiscalant at a final concentration of 50 mg L^−1.
Vials with no antiscalant addition were included as a control.
The vials were incubated at 30° C. in the dark and bacterial growth was determined by measuring cell concentrations over time using flow cytometry. Each growth potential test was conducted in three independent biological replicates.
Flow cytometry (FCM) was used to measure the bacterial cell concentration in the vials at an interval of 24 h.
To this end, 5.0 μL SYBR Green I (Invitrogen, 100× diluted in 10 mM Tris buffer pH=8.1) were added to a final 0.5 mL vial samples in amber microfuge tubes followed by mixing and incubation for 10 min in the dark at 35° C.
Stained cells were measured with a BD Accuri C6 instrument in fixed 50 μL volume mode with a sample flow rate of 35 μL min^−1. The blue 488 nm laser (50 mW) was used to collect the green fluorescence at FL1=533 30 nm, the red fluorescence FL3>670 nm, as well as intrinsic cell parameters were given by the side scattered (SSH) and forward scattered (FSH) light signals. Electronic gating was used to separate positive microbial stained signals from instrument, and water background noise as described by Prest et al. (2013).
The instrument performance was verified using Spherotech 8-peak validation beads. […]
Background: Flow cytometry measures light scatter and fluorescence of single cells or particles in a stream.
With `CC(O)(P(=O)(O)O)P(=O)(O)O` [HEDP, 1-hydroxyethylidene-(1,1-diphosphonic acid)], the “bacterial growth compared to reference without antiscalant” value is “did not promote bacterial growth”.
Then `O=P(O)(O)CN(CP(=O)(O)O)CP(=O)(O)O` [ATMP, amino trimethylene phosphonic acid], with “promoted bacterial growth”.
Then `O=P(O)(O)CN(CCCCCCN(CP(=O)(O)O)CP(=O)(O)O)CP(=O)(O)O` [HDTMP, hexamethylenediamine-tetra(methylenephosphonic acid)], with “promoted bacterial growth”.
